Key:
CCRF-CEM = assay: In vitro growth inhibition of CCRF-CEM cells, Example 2 (MTT); assay type: cell-based; conditions: Homo sapiens, continuous exposure (title: 72-hour; method: 5 days), mean IC50, read-out: IC50 Cell Culture CCRF-CEM
Protocol: All cultures were maintained at 37° C. 5% air-CO2 in a humidified incubator.
Stock solutions of the inhibitors were prepared in 10 mM sodium bicarbonate in water and stored in i ml aliquots at -20° C. for cell culture experiments. Cell growth inhibition was measured by a modification of the method of Mosmann, J. Immunol. Methods 65 (1983), 55-63.
Mid-log phase cells of each cell line were diluted to 18,500 cells/ml in fresh RPMI growth medium (Mediatech, Washington, D.C.) supplemented with dialyzed fetal calf serum (Hyclone Laboratories Inc., Logan, Utah) and then aliquotted into columns 2 through 12 of 96-well microtiter plates. Column 1 was filled with the same volume ([…]) of fresh medium, without cells, for use as a blank. The plates were then placed in a 37° C., 5% air-CO2 incubator. After 1 to 4 hours, plates were removed from the incubator followed by addition of Compound (21) at 10× final concentration, […] in binary dilutions, to columns 12 to 4. […] The extent of metabolized MTT was measured spectrophotometrically at 540 nm on a Molecular Devices Vmax™ kinetic microplate reader. The concentration of drug required to reduce cell growth by 50% as measured by MTT metabolism was determined by interpolation between the O.D. (minus blank) immediately above and below 50% of control O.D. (minus blank). […]

6C3HED lymphosarcoma = assay: In vivo antitumor activity, 6C3HED lymphosarcoma implanted subcutaneously in C3H/He female mice
Protocol: (§1) On day zero, 2 mm^2 trocar fragments of 6C3HED lymphosarcoma were implanted subcutaneously in the axillary region into groups of six C3H/He female mice. Starting on day 1, the test compound was administered intraperitoneally in 40% Encapsin given once daily for nine days. Control animals received identical treatment without test compound. The percentage inhibition given in Table 5 below was calculated by comparing the mass of the control tumors (receiving diluent only) on day 11 to those of animals receiving test compound.

[1] = tested on: C3H/BA mammary adenocarcinoma; assay: In vivo antitumor activity, C3H/BA mammary adenocarcinoma implanted subcutaneously in C3H/He female mice; conditions: day 14
Protocol: as §1, with “C3H/BA mammary adenocarcinoma” for “6C3HED lymphosarcoma”, “percentage of” for “percentage”, “inhibition” for “inhibition given in Table 5 below”, “14” for “11”

GARFT = conditions: Muggia, New Drugs, Concepts and Results in Cancer Chemotherapy, 1992; cited from earlier work

| SMILES | IC50 (CCRF-CEM) [nM] | % Inhibition (tumor mass) (6C3HED lymphosarcoma; 12.5 mg/kg i.p. once daily for nine days, day 11) [%] | % Inhibition (tumor mass) (6C3HED lymphosarcoma; 25 mg/kg i.p. once daily for nine days, day 11) [%] | % Inhibition (tumor mass) (6C3HED lymphosarcoma; 50 mg/kg i.p. once daily for nine days, printed as a word in the % Inhibition column) | % Inhibition (tumor mass) ([1]; 5 mg/kg i.p. once daily for nine days) [%] | % Inhibition (tumor mass) ([1]; 10 mg/kg i.p. once daily for nine days) [%] | % Inhibition (tumor mass) ([1]; 20 mg/kg i.p. once daily for nine days) [%] | GARFT inhibition and antitumor activity (literature) (GARFT) |
| --- | --- | --- | --- | --- | --- | --- | --- | --- |
| Nc1nc2c(c(=O)[nH]1)SC(CCc1ccc(C(=O)N[C@@H](CCC(=O)O)C(=O)O)s1)CN2 (stereo partly drawn) [Compound 21, 4-[2-(2-Amino-4-oxo-4,6,7,8-tetrahydro-3H-pyrimido[5,4-6][1,4]thiazin-6-yl)-ethyl]-2,5-thienoylamino-L-glutamic acid] | 4.3 | 100 | 100 | toxic | 16 | 84 | 100 |  |
| Nc1nc2c(c(=O)[nH]1)CC(CCc1ccc(C(=O)N[C@@H](CCC(=O)O)C(=O)O)cc1)CN2 (some centres unmarked) [5,10-dideazatetrahydrofolic acid] |  |  |  |  |  |  |  | specific tight binding inhibitor of GARFT, 5,10-dideazatetrahydrofolic acid, has been reported to show antitumor activity |
